Data published in patent publication US3995044A, “Pyridine carboxylic acid amides for mycobacterium infections” (priority 1974, dated 1976).
In brackets after ≈: the same amount, converted by molar mass. Like-named read-outs stand apart in the source and are kept apart here.

What was measured:
Test in all cases: microbe, parasite or virus in culture
Format in all cases: cell-based
[1] = test system: Mycobacterium tuberculosis PAS-res.; conditions: read-out: MIC, PAS-res.
[2] = test system: Mycobacterium tuberculosis SM-res.; conditions: read-out: MIC, SM-res.
[3] = test system: Mycobacterium tuberculosis INH-res.; conditions: read-out: MIC, INH-res.
[4] = test system: Mycobacterium tuberculosis INH-TSC-res.; conditions: read-out: Minimum inhibitory concentration (on egg medium), resistant test strain INH-TSC-res.
[5] = test system: Mycobacterium tuberculosis CS-res.; conditions: read-out: MIC, CS-res.
[6] = test system: Mycobacterium tuberculosis INH TSC ETH-res.; conditions: read-out: MIC, INH TSC ETH-res.
[7] = test system: Mycobacterium tuberculosis INH-res.; conditions: read-out: Minimum inhibitory concentration (on egg medium), resistant test strain INH-res.

Structure (SMILES) | MIC [1] [µg/mL] | MIC [2] [µg/mL] | MIC [3] [µg/mL] | MIC [4] [µg/mL] | MIC [5] [µg/mL] | MIC [6] [µg/mL] | MIC [7] [µg/mL]
O=C(NCc1ccccn1)c1cc([N+](=O)[O-])cc([N+](=O)[O-])c1 [Example 1, N-(pyrid-2-ylmethyl)-3,5-dinitrobenzoic acid amide] | 1.6 (≈ 5.29 µM) | 1.6 (≈ 5.29 µM) | 0.8 (≈ 2.65 µM) | 1 (≈ 3.31 µM) | 1.6 (≈ 5.29 µM) | 0.8 (≈ 2.65 µM) | 1 (≈ 3.31 µM)
O=C(NCc1cnc2ccccc2c1)c1cc([N+](=O)[O-])cc([N+](=O)[O-])c1 [Example 9] | 0.4 (≈ 1.14 µM) | 0.2 (≈ 0.568 µM) | 0.4 (≈ 1.14 µM) | 2 (≈ 5.68 µM) | 0.2 (≈ 0.568 µM) | 0.03 (≈ 0.0852 µM) | 2 (≈ 5.68 µM)
O=C(NCCc1ccccn1)c1cc([N+](=O)[O-])cc([N+](=O)[O-])c1 [Example 10] |  |  |  | 32 (≈ 101 µM) |  |  | 1 (≈ 3.16 µM)
O=C(NCc1cccnc1)c1cc([N+](=O)[O-])cc([N+](=O)[O-])c1 [Example 12] |  |  |  | 32 (≈ 106 µM) |  |  | 8 (≈ 26.5 µM)
O=C(NCc1ccncc1)c1cc([N+](=O)[O-])cc([N+](=O)[O-])c1 [Example 13] |  |  |  | 128 (≈ 423 µM) |  |  | 128 (≈ 423 µM)
Cc1cccc(CNC(=O)c2cc([N+](=O)[O-])cc([N+](=O)[O-])c2)n1 [Example 14] | 1.6 (≈ 5.06 µM) | 1.6 (≈ 5.06 µM) | 0.8 (≈ 2.53 µM) |  | 1.6 (≈ 5.06 µM) | 0.8 (≈ 2.53 µM) | 
O=C(NCc1ccc2ccccc2n1)c1cc([N+](=O)[O-])cc([N+](=O)[O-])c1 [Example 15] | 0.4 (≈ 1.14 µM) | 0.1 (≈ 0.284 µM) | 0.1 (≈ 0.284 µM) | 1 (≈ 2.84 µM) | 0.2 (≈ 0.568 µM) | 0.05 (≈ 0.142 µM) | 1 (≈ 2.84 µM)
O=C(NCC1CCCO1)c1cc([N+](=O)[O-])cc([N+](=O)[O-])c1 (stereo not shown) [Example 20] | 1.6 (≈ 5.42 µM) | 1.6 (≈ 5.42 µM) | 1.6 (≈ 5.42 µM) |  | 1.6 (≈ 5.42 µM) | 1.6 (≈ 5.42 µM) | 
O=C(NCC1CCC=CO1)c1cc([N+](=O)[O-])cc([N+](=O)[O-])c1 (stereo not shown) [Example 22] | 0.8 (≈ 2.6 µM) | 0.4 (≈ 1.3 µM) | 0.1 (≈ 0.325 µM) |  | 0.4 (≈ 1.3 µM) | 0.2 (≈ 0.651 µM) | 
CC(NC(=O)c1cc([N+](=O)[O-])cc([N+](=O)[O-])c1)c1ccccn1 (stereo not shown) [Example 29] | 1.6 (≈ 5.06 µM) | 0.8 (≈ 2.53 µM) | 1.6 (≈ 5.06 µM) | 2 (≈ 6.32 µM) | 1.6 (≈ 5.06 µM) | 0.8 (≈ 2.53 µM) | 2 (≈ 6.32 µM)
